3 molecules from patent US7763620B2, “Piperazinone compounds as anti-tumor and anti-cancer agents and methods of treatment” (Yale University, priority 2001, dated 2010) can be followed below.

Assay [1] relates to A-549 human lung cancer cells. Kind of assay: Antitumor activity in the nude mouse tumor xenograft model (A-549). It is filed as in vivo. The conditions noted are these: A-549 s.c. xenograft in nude mice; for inhibition of A-549 tumor growth: 28-34 days, versus vehicle; for average tumor size: over a period of 28-34 days, vehicle about 600 mm^3, s.c. osmotic mini-pumps. From the text:
Antitumor activity in the nude mouse tumor xenograft model—Nude mice (Charles River, Wilmington, Mass.) were maintained in accordance with the Institutional Animal Care and Use Committee (IACUC) procedures and guidelines. A-549 cells were harvested, resuspended in PBS and injected s.c. into the right and left flank (7×10^6 cells per flank) of 8 week old female nude mice as reported previously (1, 2). When tumors reached 50 to 100 mm^3, animals either were implanted s.c. with 2-week osmotic mini-pumps (Alzet 2002, Alzet, Palo Alto, Calif.). The mini-pumps were implanted on the right flank and the tumor cells on the left flank. Control animals received a saline vehicle whereas treated animals were injected with either vehicle, GGTI-2154, GGTI-2418, GGTI-2432 and GGTI-2430. The tumor volumes were determined by measuring the length (l) and the width (w) and calculating the volume (V=lw^2/2) as described previously (30, 31).

The subject of assay [2] is Rap1A processing by GGTase-I. Kind of assay: Inhibition of Rap1A processing (geranylgeranylation) in oncogenic H-Ras-transformed NIH 3T3 cells, immunoblot. It counts as cell-based. The conditions noted are these: read-out: IC50, block of Rap1A processing by GGTase-I. As to the method:
(§1) The in vitro inhibition assays of GGTase-1 and FTase were carried out by measuring the [^3H]GGPP and [^3H]FPP incorporated into H-Ras-CVLL and H-Ras-CVLS, respectively, as previously described.^27 The in vivo inhibition of geranylgeranylation and farnesylation was determined based on the level of inhibition of Rap1A and H-Ras processing, respectively.^10 Briefly, oncogenic H-Ras-transformed NIH 3T3 cells were treated with various concentrations of inhibitors, and the cell lysates were separated on 12.5% SDS-PAGE. The separated proteins were transferred to nitrocellulose and immunoblotted using an anti-Ras antibody (Y13-258) or an anti-Rap1A antibody (SC-65). Antibody reactions were visualized using either peroxidase-conjugated goat anti-rat IgG or goat anti-rabbit IgG and an enhanced chemiluminescence detection system. The results of those assays appear in Table 1 (FIG. 9), Table 2 (FIG. 10) and Table 3 (FIG. 11).
(A western blot detects proteins with antibodies after separation by electrophoresis.)

For the next assay, the target named is GGTase-I (Homo sapiens, UniProt P49354+P53609). Kind of assay: In vitro GGTase-I inhibition ([3H]GGPP incorporation into H-Ras-CVLL). It is filed as biochemical. The conditions noted are these: Table 3, FIG. 11. As to the method: as §1

As for `Cc1ccccc1-c1cc(NCc2cnc[nH]2)ccc1C(=O)N[C@@H](CC(C)C)C(=O)O` [GGTI-2154, reference compound], in assay [1], the “inhibition of A-549 tumor growth” value is 66% and the average tumor size is 250 mm^3.
As to `COC(=O)[C@H](CC(C)C)NC(=O)N1CCN(Cc2nc[nH]c2C)C(=O)[C@@H]1Cc1ccccc1` [GGTI-2417], in assay [2], the IC50 amounted to 300 nM.
As to `Cc1nc[nH]c1CN1CCN(C(=O)N[C@@H](CC(C)C)C(=O)O)[C@@H](Cc2ccccc2)C1=O` [GGTI-2418], the “inhibition of GGTase-I (activity in words)” value on GGTase-I is listed as “exceptional activity”. In assay [1], the “inhibition of A-549 tumor growth” value came out at 57% and the average tumor size was 280 mm^3.

By IC50 is commonly meant the concentration at which inhibition is half-maximal.
